Legend:
Human S1P3 receptor = target: T1, Human S1P3 receptor (Homo sapiens, UniProt Q99500); assay: Suppression of S1P-induced cellular calcium mobilization in human S1P3 receptor-expression CHO cells (Schild plot); type: cell-based; details: Schild plot of S1P EC50 shift; test compound 125 nM, 1.25 μM, 12.5 μM; hS1P3 CHO cells; read-out: S1P3 dissociation constant Kd value
T1 construct: expressed in transfected cells; host or cells: CHO cells (Geneticin-selected)
Description: Suppression Effect of Test Compound Against Cellular Calcium Mobilization of Human S1P3 Receptor-Expression Cell by S1P (Sphingosine 1-Phosphoric Acid)
Human S1P3 receptor-expression CHO cells were subcultured in a Ham's F-12 culture medium containing 10% fetal bovine serum, and 300 μg/mL of Geneticin. The human S1P3 receptor-expression CHO cells were subjected to 0.25% trypsinization, then recovered from the dish, and floated in a Ham's F-12 culture medium containing 10% fetal bovine serum, and 300 μg/mL of Geneticin. After that, the human S1P3 receptor-expression CHO cells were disseminated into a 96-well black clear bottom plate (BD Falcon Biocoat) so that 7×10^4/100 μL/well of the human S1P3 receptor-expression CHO cells were disseminated. And then, the human S1P3 receptor-expression CHO cells were cultivated for one night at 37° C. under 5% CO2. The next day, the wells were washed 3 times with 100 μL of PBS containing 0.1% fatty acid-free bovine serum albumin (BSA). The culture medium was exchanged with a Ham's F-12 culture medium containing 0.1% BSA, and then starved of serum for 6 hours in an CO2 incubator at 37° C.
The culture medium was thrown away after the 6 hours. Then, 50 μL/well of a Fluo3 loading buffer was added, and the cultures were cultivated for further 1 hour. The Fluo3 loading buffer was prepared as follows. First, equal amounts of Fluo3-AM (Dojindo) and pluronic F-127 (20% DMSO solution, invitrogen) were mixed. Next, the mixture of Fluo3-AM and pluronic F-127 was added to a Hanks-HEPES buffer (balanced salt solution containing 20 mM HEPES (pH, 7.4), 0.1% BSA (fatty acid-free), and 2.5 mM probenecid) to form a Fluo3 loading buffer having a final Fluo3-AM concentration of 4
After incubating for 1 hour, the cultures were washed 3 times with 100 μL of the Hanks-HEPES buffer. Then, 100 μL of the same buffer in which a test compound (125 nM, 1.25 μM, 12.5 μM) or DMSO had been dissolved was added to the cultures, and then incubated for 30 minutes at 37° C. in a microplate spectrophotofluorometer (FLEX Station) (Molecular Device Co., Ltd.). Then, 25 μL of S1P prepared at 5 times the concentration of the final concentration by serial dilution (final concentration of 0.1 nM, 1 nM, 10 nM, 100 nM, and 1 μM) was added, and the fluorescence based on the Fluo3 due to calcium mobilization was detected and measured at an excitation wavelength of 485 nm and a detection wavelength of 525 nm using the same apparatus. Based on the measurement data, the increase in fluorescence was calculated by subtracting the minimum fluorescence intensity from the maximum fluorescence intensity. The measured increase in fluorescence was used to perform a curve approximation of the relationship between the S1P concentration and the increase in fluorescence using PRISM 4 software (GraphPad). Based on the results, the EC50 value of the compound-untreated and the EC50 value of the compound-treated at each concentration were calculated. Schild Plot analysis was performed based on these values to determine dissociation constant Kd value. In Table 1, 1,000 nmol/L>Kd value≧100 nmol/L is indicated as “+,” 100 nmol/L>Kd value≧10 nmol/L is indicated as “++,” 10 nmol/L>Kd value≧1 nmol/L is indicated as “+++,” and 1 nmol/L>Kd value is indicated as “++++.”

IL-1β production = assay: LPS induced sepsis model, IL-1β in tissue by ELISA; type: in vivo, C57BL/6J mouse; details: 10 mg/kg i.v. twice (15 min before and 2 h after LPS), 18 h after LPS; for Suppression Rate for Lung: mouse lung; for Suppression Rate for Mesenteric Lymph Nodes: mouse mesenteric lymph nodes
Description: The experiment was carried out with reference to the method described in Non-Patent Literature 5 (F. Nissen et al., Nature, 452, 654 (2008)). A solution of 1 mg/ml LPS (lipopolysaccharide) in physiological saline was intraperitoneally administered (10 ml/kg) to a C57BL/6J mouse (Charles River, male, 7 to 8 weeks). The test compound in an amount of 10 mg/kg was intravenously administered twice, 15 minutes before LPS administration and 2 hours after LPS administration. The mouse was dissected 18 hours after LPS administration, and the mesenteric lymph nodes and lungs were excised. The mesenteric lymph nodes were dissolved in 200 μl and the lungs in 1 ml of a dissolving buffer (30 mM Tris (pH7.4), 150 mM NaCl, 0.1% TritonX-100, 2 mM CaCl2, and 2 mM MgCl2). Non-dissolved matter was removed by centrifugal separation. The IL-1β in the tissue solutions was measured using an IL-1β ELISA Kit (Thermo Co., Ltd.). In Table 2, compounds having a suppression rate of 50% or more are indicated as “+++,” compounds having a suppression rate of 50%>suppression rate≧30% are indicated as “++,” and compounds having a suppression rate of 30%>suppression rate 20% are indicated as “+.”
The suppression rate was calculated using the following calculation equation. a=(1−X/Y)×100 [Equation 1] X: IL-1β PRODUCTION AMOUNT WHEN, 10 mg/kg OF TEST COMPOUND WAS ADMINISTERED TO RESPECTIVE TISSUE Y: IL-1β PRODUCTION AMOUNT WHEN TEST COMPOUND WAS NOT ADMINISTERED TO RESPECTIVE TISSUE a: SUPPRESSION RATE (%)

T1 sequence (Q99500 whole entry): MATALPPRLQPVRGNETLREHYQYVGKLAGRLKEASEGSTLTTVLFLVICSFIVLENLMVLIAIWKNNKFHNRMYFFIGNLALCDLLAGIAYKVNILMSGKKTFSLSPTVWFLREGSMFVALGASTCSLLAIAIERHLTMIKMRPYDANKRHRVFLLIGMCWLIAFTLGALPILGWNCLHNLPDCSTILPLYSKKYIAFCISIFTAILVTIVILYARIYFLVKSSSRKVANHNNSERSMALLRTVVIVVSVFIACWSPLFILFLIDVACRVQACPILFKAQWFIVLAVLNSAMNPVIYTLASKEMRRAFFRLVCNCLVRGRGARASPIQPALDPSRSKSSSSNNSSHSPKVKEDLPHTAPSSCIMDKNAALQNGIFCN

Row | SMILES | Kd (Human S1P3 receptor) [nM] | Suppression Rate for Lung (IL-1β production) | Suppression Rate for Mesenteric Lymph Nodes (IL-1β production)
1 | CCC[C@](N)(CCc1ccc(Sc2cc(OCc3ccccc3)ccc2O)cc1Cl)COP(=O)(O)O [Example 23, (S)-2-amino-4-[4-(5-benzyloxy-2-hydroxyphenylthio)-2-chlorophenyl]-2-propylbutylphosphoric acid monoester] | 1 to 10 | – | –
2 | CC(C)c1ccc(O)c(Sc2ccc(CC[C@](C)(N)COP(=O)(O)O)c(Cl)c2)c1 [Example 4] | 1 to 10 | – | –
3 | C[C@](N)(CCc1ccc(Sc2cc(C(F)(F)F)ccc2O)cc1Cl)COP(=O)(O)O [Example 11, (S)-2-amino-4-[2-chloro-4-(2-hydroxy-5-trifluoromethylphenylthio)phenyl]-2-methylbutylphosphoric acid monoester] | 1 to 10 | ++ (50%>suppression rate≧30%) | ++ (50%>suppression rate≧30%)
4 | CCC[C@](N)(CCc1ccc(Sc2cc(C3CC3)ccc2O)cc1Cl)COP(=O)(O)O [Example 20, (S)-2-amino-4-[2-chloro-4-(5-cyclopropyl-2-hydroxyphenylthio)phenyl]-2-propylbutylphosphoric acid monoester] | 1 to 10 | – | –
5 | C[C@](N)(CCc1ccc(Sc2cc(OCc3ccccc3)ccc2O)cc1Cl)COP(=O)(O)O [Example 9, (S)-2-amino-4-[4-(5-benzyloxy-2-hydroxyphenylthio)-2-chlorophenyl]-2-methylbutylphosphoric acid monoester] | 1 to 10 | – | –
6 | C[C@](N)(CCc1ccc(Sc2cc(C(F)(F)F)ccc2O)cc1Cl)CCP(=O)(O)O [Example 17, (S)-3-amino-5-[2-chloro-4-(2-hydroxy-5-trifluoromethylphenylthio)phenyl]-3-methylpentylphosphonic acid] | 100 to 1000 | – | –
7 | CCOc1ccc(O)c(Sc2ccc(CC[C@](C)(N)COP(=O)(O)O)c(Cl)c2)c1 [Example 7, (S)-2-amino-4-[2-chloro-4-(5-ethoxy-2-hydroxyphenylthio)phenyl]-2-methylbutylphosphoric acid monoester] | 10 to 100 | – | –
8 | CCC[C@](N)(CCc1ccc(Sc2cc(C(C)C)ccc2O)cc1Cl)COP(=O)(O)O [Example 19, (S)-2-amino-4-[2-chloro-4-(2-hydroxy-5-isopropylphenylthio)phenyl]-2-propylbutylphosphoric acid monoester] | 1 to 10 | – | –
9 | CC(C)Oc1ccc(O)c(Sc2ccc(CC[C@](C)(N)COP(=O)(O)O)c(Cl)c2)c1 [Example 8, (S)-2-amino-4-[2-chloro-4-(2-hydroxy-5-isopropoxyphenylthio)phenyl]-2-methylbutylphosphoric acid monoester] | 10 to 100 | – | –

Now from value to compound, other results behind:

Row | Kd (Human S1P3 receptor) [nM] | SMILES | Suppression Rate for Lung (IL-1β production) | Suppression Rate for Mesenteric Lymph Nodes (IL-1β production)
10 | 10 to 100 | CC(=O)c1ccc(O)c(Sc2ccc(CC[C@](C)(N)COP(=O)(O)O)c(Cl)c2)c1 [Example 16, (S)-4-[4-(5-acetyl-2-hydroxyphenylthio)-2-chlorophenyl]-2-amino-2-methylbutylphosphoric acid monoester] | – | –
11 | 100 to 1000 | COc1ccc(O)c(Sc2ccc(CC[C@](C)(N)COP(=O)(O)O)c(Cl)c2)c1 [Example 6, (S)-2-amino-4-[2-chloro-4-(2-hydroxy-5-methoxyphenylthio)phenyl]-2-methylbutylphosphoric acid monoester] | – | –
12 | < 1 | C=CC[C@](N)(CCc1ccc(Sc2cc(C(F)(F)F)ccc2O)cc1Cl)COP(=O)(O)O [Example 12, (R)-2-allyl-2-amino-4-[2-chloro-4-(2-hydroxy-5-trifluoromethylphenylthio)phenyl]-butylphosphoric acid monoester] | ++ (50%>suppression rate≧30%) | + (30%>suppression rate 20%)
13 | < 1 | CCC[C@](N)(CCc1ccc(Sc2cc(C(C)(C)C)ccc2O)cc1Cl)COP(=O)(O)O [Example 21, (S)-2-amino-4-[4-(5-t-butyl-2-hydroxyphenylthio)-2-chlorophenyl]-2-propylbutylphosphoric acid monoester] | – | –
14 | 10 to 100 | C[C@](N)(CCc1ccc(Sc2ccccc2O)cc1Cl)COP(=O)(O)O [Example 14, (S)-2-amino-4-[2-chloro-4-(2-hydroxyphenylthio)phenyl]-2-methylbutylphosphoric acid monoester] | – | –
15 | 1 to 10 | CCCc1ccc(O)c(Sc2ccc(CC[C@@](N)(CCC)COP(=O)(O)O)c(Cl)c2)c1 [Example 18, (S)-2-amino-4-[2-chloro-4-(2-hydroxy-5-propylphenylthio)phenyl]-2-propylbutylphosphoric acid monoester] | – | –
16 | 10 to 100 | Cc1ccc(O)c(Sc2ccc(CC[C@](C)(N)COP(=O)(O)O)c(Cl)c2)c1 [Example 1, (S)-2-amino-4-[2-chloro-4-(2-hydroxy-5-methylphenylthio)phenyl]-2-methylbutylphosphoric acid monoester] | – | –
17 | 10 to 100 | C[C@](N)(CCc1ccc(Sc2cc(Cl)ccc2O)cc1Cl)COP(=O)(O)O [Example 10, (S)-2-amino-4-[2-chloro-4-(5-chloro-2-hydroxyphenylthio)phenyl]-2-methylbutylphosphoric acid monoester] | – | –
18 | 1 to 10 | C[C@](N)(CCc1ccc(Sc2cc(C3CC3)ccc2O)cc1Cl)COP(=O)(O)O [Example 5, (S)-2-amino-4-[2-chloro-4-(5-cyclopropyl-2-hydroxyphenylthio)phenyl]-2-methylbutylphosphoric acid monoester] | – | –
19 | 10 to 100 | CCCc1ccc(O)c(Sc2ccc(CC[C@](C)(N)COP(=O)(O)O)c(Cl)c2)c1 [Example 3, (S)-2-amino-4-[2-chloro-4-(2-hydroxy-5-propylphenylthio)phenyl]-2-methylbutylphosphoric acid monoester] | – | –
20 | 10 to 100 | CCc1ccc(O)c(Sc2ccc(CC[C@](C)(N)COP(=O)(O)O)c(Cl)c2)c1 [Example 2, (S)-2-amino-4-[2-chloro-4-(5-ethyl-2-hydroxyphenylthio)phenyl]-2-methylbutylphosphoric acid monoester] | – | –
